Where two headings read alike, the source gives them in different places.
Columns and labels:
beta-TC6 cells [1] = assay: Insulin release in high glucose medium, rat/mouse insulin ELISA; format: cell-based; details: for activation at 5 µM / fold induction at 5 µM: Mus musculus, Beta-TC6, 2 h; for fold induction at 5 µM: high glucose (4.5 g/L)
Description: Cells were cultured overnight, washed with PBS and then treated with 5 µM of test compounds as well as non-inhibitor controls for 2 h in a high glucose (4.5 g/L) DMEM at 37°C and 5 % (v/v) CO2. Release of insulin was detected using a rat/mouse insulin ELISA.
After incubation, the supernatant of the beta-TC6 insulinoma cells was diluted 1:20, whereas the supernatants of the RIN-T2B-5AH were diluted 1:10. The insulin release was measured with rat/mouse insulin ELISA (Merck Millipore Darmstadt, Cat. # EZRMI-13K) by following the manufacture's protocol. The enzyme activity of the horseradish peroxidase of the immobilized biotinylated antibodies was monitored spectrophotometrically by the increased absorbency at 490 nm, and corrected by the absorbency at 610 nm.
Afterwards, the supernatant was analyzed for insulin using the rat/mouse insulin ELISA (Merck Millipore Darmstadt, Cat. # EZRMI-13K) by following the manufacture's protocol..
Cells were treated for 2 h in a high glucose (4.5 g/L) DMEM media at 37°C and 5 % (v/v) CO2. Insulin release was analyzed using the rat/mouse insulin ELISA.

GRK5 = target: T1, GRK5 (Homo sapiens, UniProt P34947); assay: GRK5 radiometric filtration binding assay (Millipore KinaseProfiler); format: biochemical; details: Table 6
T1 construct: purchased Millipore (KinaseProfiler service)
T1 sequence (P34947 whole entry): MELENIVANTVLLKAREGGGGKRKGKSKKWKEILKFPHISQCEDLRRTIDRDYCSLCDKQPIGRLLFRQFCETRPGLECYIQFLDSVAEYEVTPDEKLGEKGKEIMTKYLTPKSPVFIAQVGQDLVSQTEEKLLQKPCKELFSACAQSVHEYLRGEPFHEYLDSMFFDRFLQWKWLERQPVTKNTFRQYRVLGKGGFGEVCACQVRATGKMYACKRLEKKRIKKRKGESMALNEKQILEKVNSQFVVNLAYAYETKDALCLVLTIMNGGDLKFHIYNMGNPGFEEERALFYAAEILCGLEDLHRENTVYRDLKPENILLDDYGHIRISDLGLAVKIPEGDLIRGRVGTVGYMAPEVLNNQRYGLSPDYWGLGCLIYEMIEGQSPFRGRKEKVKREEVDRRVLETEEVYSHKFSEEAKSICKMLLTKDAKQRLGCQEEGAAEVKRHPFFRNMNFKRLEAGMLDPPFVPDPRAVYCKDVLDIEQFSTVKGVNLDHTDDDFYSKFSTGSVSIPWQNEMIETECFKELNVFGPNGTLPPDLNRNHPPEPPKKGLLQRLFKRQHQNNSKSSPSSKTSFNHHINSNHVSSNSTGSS
Description: As alternative, IC50 values are determined by a radiometric based filtration binding assay, namely Millipore KinaseProfiler™. GRK5 is incubated with 8 mM MOPS pH7.0, 0.2 mM EDTA, 2 mg/mL casein, 10 mM MgAcetate and […] (specific activity approx. 500 cpm/pmol, concentration as required). The reaction is initiated by the addition of the MgATP mix. After incubation for 40 minutes at room temperature, the reaction is stopped by the addition of 3 % phosphoric acid solution. 10 µL of the reaction is then spotted onto a P30 filtermat and washed three times for 5 minutes in 75 mM phosphoric acid and once in methanol prior to drying and scintillation counting.

[2] = test system: 3T3-L pre-adipocytes differentiated to matured adipocytes; assay: Insulin dependence of 2-NBDG uptake in matured adipocytes; format: cell-based; details: compound added beside 10 µg/ml insulin, 1 h, 100 µM 2-NBDG; Figure 12
Description: To investigate if the 2-NBDG uptake of the inventive compound inhibitors of Scyl1 and GRK5 are insulin dependent, 3T3-L pre-adipocytes were differentiated to matured adipocytes. Afterwards, cells were starved for 4 h before they were washed and glucose free media supplied with 100 µM 2-NBDG, in the presence and absence of 10 µg/ml insulin and either Cpd 10 (Scyl1) of Cpd 1 (Grk5) was added for 1 h at 37 °C. Furthermore, as internal controls, samples of glucose free media or glucose free media with compound were measured (data not shown). Fluorescence was analyzed by flow cytometer (FACS Calibur, BD Bioscience, respectively a BD Accuri® C6 Flow Cytometer). For evaluation, cells were gated using the side- and forward scatter SSC/FSC and quantified by excited at 488 and detected at 533 nm (FL1).

beta-TC6 cells [3] = assay: Insulin HTRF assay, relative activity Ar normalized to sunitinib; format: cell-based; details: Mus musculus, normalized to positive control sunitinib (5 µM = 100%), Table 10
Method in brief: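 Relative activity Ar was scaled between 0% and 100% controls, with sunitinib at 5 µM f.c. as reference. Insulin released by beta-TC6 cells was quantified by sandwich HTRF (Eu-cryptate/XL665 antibodies, 120 min RT). Cells had been seeded 24 or 48 h, then treated 2–4 h at 37°C in induction buffer, 0.5% DMSO.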

beta-TC6 cell system = assay: Comparison of insulin release with commercially available inhibitors, mouse/rat insulin ELISA; format: cell-based; details: Mus musculus, Beta-TC6; 5µM, 2 h; DMSO = 0; Table 9
Description: Based on literature references, several commercially available inhibitors were compared with compounds according to the invention. […] Cells were cultured for 24 h before treated with the inventive compounds and control inhibitors for 2 h at 37 °C and 5 % (v/v) CO2. Insulin in the supernatant was detected by mouse/rat insulin ELISA.

beta-TC6 cells [4] = assay: Insulin release in high glucose medium, rat/mouse insulin ELISA; format: cell-based; details: 2 h, high glucose (4.5 g/L)
C2C12 cells = assay: 2-NBDG glucose uptake by flow cytometry; details: for fold induction at 5 µM: Mus musculus, C2C12, 1 h, read-out: Ratio of 2-NBDG uptake
Description: (§1) Furthermore, as internal controls, samples of glucose free media, respectively glucose free media with test compound, were tested. Subsequently, cells were washed, trypsinized and harvested in ice-cold PBS before centrifuged at 1.6 x10^3 rpm at 4°C. Cells were analyzed by flow cytometry (FACS Calibur, BD Bioscience, respectively a BD Accuri® C6 Flow Cytometer).
(§2) To investigate the impact of the Grk5 inhibitors on Glucose uptake, cells were cultured 1 h in glucose free media supplied with 100 µM 2-NBDG at 37 °C and 5 % (v/v) CO2. Furthermore, as internal controls, samples of glucose free media, respectively glucose free media with test compounds, were measured. Fluorescence was analyzed by flow cytometer (FACS Calibur, BD Bioscience, respectively a BD Accuri® C6 Flow Cytometer).

beta-TC6 cells [5] = assay: 2-NBDG glucose uptake by flow cytometry; details: Mus musculus, Beta-TC6, 1 h, read-out: Ratio of 2-NBDG uptake
Description: as §1, §2

## NC(=O)c1ccc(-c2cnc3ccc(Cc4ccc(F)cc4)nn23)cc1 [compound 1, 4-[6-[(4-fluorophenyl)methyl]imidazo[1,2-b]pyridazin-3-yl]benzamide]
beta-TC6 cells [1]; high glucose (4.5 g/L) DMEM, Example 9, Figure 6, ± SEM, read-out: increase of insulin release
  activation at 5 µM: 42.8 ± 6.8%
beta-TC6 cells [1]; 0 µM = 1, Table 7
  fold induction at 5 µM: 1.81
GRK5
  IC50: 5 to 20 µM
[2]
  additional (insulin independent) increase: 48.9 ± 7.2%
beta-TC6 cells [3]
  Emax: 20 to 50%
beta-TC6 cell system
  activation at 5 µM: 70.7%
beta-TC6 cells [4]; 0 µM = 1, Table 7
  fold induction at 2 µM: 1.24
  fold induction at 10 µM: 2.03
C2C12 cells; C2C12, 1 h compound treatment, Figure 10
  uptake of 2-NBDG compared with negative control background: significantly increased uptake of 2-NBDG
C2C12 cells
  fold induction at 5 µM: 2.45
beta-TC6 cells [5]
  fold induction at 5 µM: 1.57

## COc1cc(-c2ccc3ncc(-c4cccnc4)n3n2)cc(OC)c1OC [compound 10, 3-(3-pyridyl)-6-(3,4,5-trimethoxyphenyl)imidazo[1,2-b]pyridazine]
beta-TC6 cells [1]; 5 µM, 2 h, high glucose (4.5 g/L) DMEM, Example 4, Figure 2
  increase of insulin release: 60.2 ± 8.9%
beta-TC6 cells [1]; high glucose (4.5 g/L) DMEM, Example 4, Figure 2, read-out: increase of insulin release
  activation at 5 µM: 60.2 ± 8.9%
beta-TC6 cells [1]; 0 µM = 1, Table 3
  fold induction at 5 µM: 3.04
[2]
  additional (insulin independent) increase: 18.2 ± 3.5%
beta-TC6 cells [3]
  Emax: 20 to 50%
beta-TC6 cell system
  activation at 5 µM: 89.8%
beta-TC6 cells [4]; 0 µM = 1, Table 3
  fold induction at 2 µM: 1.66
  fold induction at 10 µM: 2.68
C2C12 cells
  fold induction at 5 µM: 1.55
beta-TC6 cells [5]
  fold induction at 5 µM: 1.14

From patent publication EP2818471A1, “Nitrogen bicyclic compounds as inhibitors for Scyl1 and Grk5” (Max-Planck-Gesellschaft zur Förderung der Wissenschaften …, priority 2013, dated 2014)
